Literature values, collected in patent EP0668291A2, “Mammalian augmenter of liver regenerating and variants thereof” (Toyo Boseki Kabushiki Kaisha, priority 1994, dated 1995).

Test system: hepatocytes
Conditions: earlier work

N[C@@H](Cc1cc(I)c(Oc2ccc(O)c(I)c2)c(I)c1)C(=O)O [thyroxin T3, tri-iodothyronine]
hepatotrophic effect: weakly hepatotrophic
